The test system of one assay is MCF-7 cells. Description: MTT assay, MCF-7 growth inhibition. As to conditions: Homo sapiens, read-out: EC50, MCF-7 cell viability. The class given is cell-based, human. The procedure:
Both mediums were enriched with 10% fetal bovine serum and 1% penicillin/streptomycin.
Cells in the exponential growth phase were seeded into 96-well plates and allowed to adhere overnight. […] After 24 h, 20 µL of Methyl-thiazolyldiphenyl-tetrazolium bromide (MTT, 5 mg/mL, Thermo Fisher Scientific) was added to each well and incubated for a minimum of 4 h. Following the incubation, the medium containing the compounds and MTT was removed from each well, and 200 µL of dimethyl sulfoxide (DMSO) was added.
(§1) All experiments were repeated at least three times, and the data are presented as mean ± standard deviation (SD). The statistical analyses were performed using Origin. EC50 or IC50 values were obtained by fitting the data to a four-parameter Hill model of the graph of log dose against percentage cell viability or inhibition from at least three sets of experiments. Difference between two groups were analyzed by Student’s t test (two-sided) and significance was set at p < 0.05. The specific details about statistical methods are introduced in respective figure legends.

In a further assay the target is T1, EGFR T790M (Homo sapiens, UniProt P00533, T790M).
T1 construct: purchased Promega Corporation, USA
T1 sequence (P00533 25-1210 T790M): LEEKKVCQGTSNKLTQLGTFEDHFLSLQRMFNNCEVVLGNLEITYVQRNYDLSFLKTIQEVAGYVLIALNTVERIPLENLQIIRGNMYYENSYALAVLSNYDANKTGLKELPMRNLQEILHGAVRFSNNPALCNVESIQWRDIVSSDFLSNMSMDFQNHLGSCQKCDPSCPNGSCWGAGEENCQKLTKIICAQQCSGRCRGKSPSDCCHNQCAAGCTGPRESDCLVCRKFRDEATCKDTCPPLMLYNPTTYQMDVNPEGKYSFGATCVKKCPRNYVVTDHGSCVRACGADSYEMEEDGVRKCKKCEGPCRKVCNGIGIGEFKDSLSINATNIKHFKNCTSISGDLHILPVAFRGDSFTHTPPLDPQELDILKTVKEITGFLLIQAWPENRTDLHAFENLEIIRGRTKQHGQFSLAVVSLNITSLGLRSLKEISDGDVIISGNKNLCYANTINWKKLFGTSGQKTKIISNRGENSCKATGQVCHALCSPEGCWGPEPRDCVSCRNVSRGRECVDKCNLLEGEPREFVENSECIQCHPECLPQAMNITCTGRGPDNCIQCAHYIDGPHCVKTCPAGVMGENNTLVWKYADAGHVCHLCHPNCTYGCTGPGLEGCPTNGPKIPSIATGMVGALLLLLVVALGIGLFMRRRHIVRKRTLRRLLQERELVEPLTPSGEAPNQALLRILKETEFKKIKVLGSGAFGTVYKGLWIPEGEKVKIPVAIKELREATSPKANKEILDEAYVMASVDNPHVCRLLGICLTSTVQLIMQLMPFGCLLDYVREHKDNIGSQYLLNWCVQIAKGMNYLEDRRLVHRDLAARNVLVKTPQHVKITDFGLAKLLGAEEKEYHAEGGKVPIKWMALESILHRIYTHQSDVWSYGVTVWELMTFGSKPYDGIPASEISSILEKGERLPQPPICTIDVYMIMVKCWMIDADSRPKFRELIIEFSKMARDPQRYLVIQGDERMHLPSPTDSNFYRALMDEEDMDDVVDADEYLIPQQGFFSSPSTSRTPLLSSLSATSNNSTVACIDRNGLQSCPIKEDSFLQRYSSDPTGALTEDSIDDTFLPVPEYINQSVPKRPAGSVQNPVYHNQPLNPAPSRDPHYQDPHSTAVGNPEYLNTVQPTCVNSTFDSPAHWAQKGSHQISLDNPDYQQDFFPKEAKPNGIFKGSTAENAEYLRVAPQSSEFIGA
Description: Kinase inhibition assay (ADP-Glo, Promega). The format is biochemical. The procedure: (§2) The extracellular ligand-binding domain of EGFR, tagged with His, and the intracellular tyrosine kinase (TK) domain of EGFR, tagged with GST, were acquired from Sinobiological, China. […] Cell lines including MCF-7, A549, A431, H1299, HL-60, and MCF-10A were obtained from the China Infrastructure Cell Line Resources.
(§3) The experiments were conducted in accordance with the manufacturer’s guidelines (Promega). The procedure began with a kinase reaction, where 5 μL of 1× kinase buffer was utilized, and the mixture was incubated at room temperature for 60 min. This step was followed by the addition of 5 μL of ADP-Glo™ reagent to terminate the kinase reaction and to deplete any remaining ATP, with a subsequent incubation period of 40 min at room temperature. Next, 10 μL of kinase detection reagent was added to convert ADP back into ATP, and luciferase along with luciferin was introduced to facilitate ATP detection. This mixture was then incubated at room temperature for an additional 30 min. Detection was carried out using a BioTek Synergy4 instrument, and data analysis, including curve fitting and presentation, was performed using GraphPad Prism version 5.0.
as §1

The target of a further assay is T2, WT EGFR (Homo sapiens, UniProt P00533).
T2 construct: purchased Promega Corporation, USA
T2 sequence (P00533 25-1210): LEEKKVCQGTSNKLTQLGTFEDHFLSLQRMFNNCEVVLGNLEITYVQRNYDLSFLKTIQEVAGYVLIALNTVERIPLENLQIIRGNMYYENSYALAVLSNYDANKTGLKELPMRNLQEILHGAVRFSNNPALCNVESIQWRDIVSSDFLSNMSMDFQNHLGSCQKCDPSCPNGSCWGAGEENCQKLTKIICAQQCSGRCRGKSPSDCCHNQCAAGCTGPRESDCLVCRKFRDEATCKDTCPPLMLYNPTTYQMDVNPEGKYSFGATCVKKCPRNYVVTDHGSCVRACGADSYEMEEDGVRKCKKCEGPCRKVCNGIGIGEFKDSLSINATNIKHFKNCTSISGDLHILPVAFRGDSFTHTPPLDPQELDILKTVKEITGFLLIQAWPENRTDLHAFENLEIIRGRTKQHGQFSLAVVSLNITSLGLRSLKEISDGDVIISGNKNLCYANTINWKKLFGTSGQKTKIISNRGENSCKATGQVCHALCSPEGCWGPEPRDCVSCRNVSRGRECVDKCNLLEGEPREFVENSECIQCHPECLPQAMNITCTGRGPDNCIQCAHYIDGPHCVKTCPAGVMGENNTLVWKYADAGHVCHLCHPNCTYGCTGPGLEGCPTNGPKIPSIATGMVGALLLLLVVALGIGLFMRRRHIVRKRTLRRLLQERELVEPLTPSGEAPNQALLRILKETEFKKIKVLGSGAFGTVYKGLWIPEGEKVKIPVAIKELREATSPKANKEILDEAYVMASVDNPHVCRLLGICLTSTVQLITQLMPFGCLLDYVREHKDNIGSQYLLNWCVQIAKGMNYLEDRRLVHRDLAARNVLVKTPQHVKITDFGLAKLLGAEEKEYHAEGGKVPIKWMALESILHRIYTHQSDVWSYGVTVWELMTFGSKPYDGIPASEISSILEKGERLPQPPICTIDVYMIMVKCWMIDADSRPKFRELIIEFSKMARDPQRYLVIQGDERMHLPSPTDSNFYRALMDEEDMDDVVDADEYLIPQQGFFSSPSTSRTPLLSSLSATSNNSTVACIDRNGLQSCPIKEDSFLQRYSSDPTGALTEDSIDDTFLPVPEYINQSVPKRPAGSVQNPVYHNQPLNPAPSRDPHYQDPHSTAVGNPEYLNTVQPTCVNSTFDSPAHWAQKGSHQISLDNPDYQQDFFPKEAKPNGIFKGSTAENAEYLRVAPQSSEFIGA
Description: Kinase inhibition assay (ADP-Glo, Promega). As to conditions: in vitro kinase assay. The format is biochemical. The method, then: as §2, §3, §1
(ADP-Glo first removes unused ATP, then detects ADP through luciferase.)

Assay [1] deals with T3, EGFR extracellular ligand binding domain (Homo sapiens, UniProt P00533).
T3 construct: His; purchased Sinobiological, China
T3 sequence (P00533 25-645 limits assumed): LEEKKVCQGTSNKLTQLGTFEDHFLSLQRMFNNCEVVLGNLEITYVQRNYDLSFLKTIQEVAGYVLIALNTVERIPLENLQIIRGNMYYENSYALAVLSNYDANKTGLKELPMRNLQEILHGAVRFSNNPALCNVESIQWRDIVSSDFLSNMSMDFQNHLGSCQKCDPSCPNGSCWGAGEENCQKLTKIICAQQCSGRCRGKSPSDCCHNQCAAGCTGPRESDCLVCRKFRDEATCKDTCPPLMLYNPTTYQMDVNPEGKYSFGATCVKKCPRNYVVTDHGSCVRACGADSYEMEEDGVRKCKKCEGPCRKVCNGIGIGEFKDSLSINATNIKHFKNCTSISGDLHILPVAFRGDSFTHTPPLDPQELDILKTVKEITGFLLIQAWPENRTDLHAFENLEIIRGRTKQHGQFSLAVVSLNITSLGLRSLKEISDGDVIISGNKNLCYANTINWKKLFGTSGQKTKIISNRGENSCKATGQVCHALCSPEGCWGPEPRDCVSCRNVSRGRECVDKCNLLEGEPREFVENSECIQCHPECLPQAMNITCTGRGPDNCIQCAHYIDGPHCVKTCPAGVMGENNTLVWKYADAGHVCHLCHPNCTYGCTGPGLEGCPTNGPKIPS
Kind of assay: SPR binding (Biacore 8K). From the text: (§4) The extracellular ligand-binding domain of EGFR, tagged with His, and the intracellular tyrosine kinase (TK) domain of EGFR, tagged with GST, were acquired from Sinobiological, China. Kinase assay systems for both wild-type EGFR and its mutants—T790M, L858R, and the dual L858R/T790M—were procured from Promega Corporation, USA. Cell lines including MCF-7, A549, A431, H1299, HL-60, and MCF-10A were obtained from the China Infrastructure Cell Line Resources.
(§5) The binding affinities of compounds towards EGFR extracellular ligand binding domain and EGFR intracellular kinase domain were assayed using the SPR-based Biacore 8K instrument (Cytiva). Considering the purchased EGFR was fused with GST tag, GST alone was also immobilized on the chip to do the binding measurement. All the proteins were respectively immobilized on a CM5 sensor chip by using standard amine-coupling at 25°C with running buffer HEPES-P (20 mM HEPES buffer, […], 0.05% surfactant P20, pH 7.4). A reference channel was only activated and blocked to eliminate compound unspecific binding to the surface of the chip. The immobilization level of EGFR extracellular ligand binding domain, EGFR intracellular kinase domain and GST were all about 10,000 RU. […] Extra wash with 50% DMSO was added to remove the last remaining sample in the pipeline.
(SPR reads the build-up and loss of mass on a sensor chip optically.)

For assay [2], the target named is T4, EGFR intracellular kinase domain (Homo sapiens, UniProt P00533). Kind of assay: SPR ATP competition experiments (1 mM ATP). As to conditions: in the presence of ATP, Figure S6.
T4 sequence (P00533 712-979 limits assumed): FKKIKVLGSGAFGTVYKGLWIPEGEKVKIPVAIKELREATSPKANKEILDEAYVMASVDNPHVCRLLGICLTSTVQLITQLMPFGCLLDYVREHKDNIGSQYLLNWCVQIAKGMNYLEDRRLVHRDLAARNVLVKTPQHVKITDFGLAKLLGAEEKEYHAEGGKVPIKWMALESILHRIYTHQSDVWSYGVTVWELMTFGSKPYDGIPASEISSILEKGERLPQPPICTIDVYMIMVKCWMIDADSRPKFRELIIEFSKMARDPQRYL
The target in assay [3] is T4, EGFR intracellular kinase domain. Description: SPR binding (Biacore 8K). As to conditions: without ATP. The arrangement: the intracellular tyrosine kinase (TK) domain of EGFR, tagged with GST; purchased Sinobiological, China.
Excerpt: as §4, §5

The next assay addresses T5, EGFR L858R (Homo sapiens, UniProt P00533, L858R).
T5 construct: purchased Promega Corporation, USA
Kind of assay: Kinase inhibition assay (ADP-Glo, Promega). The class given is biochemical. The procedure:
as §2, §3, §1

For another assay, the target named is T6, EGFR L858R/T790M (Homo sapiens, UniProt P00533, L858R/T790M).
T6 construct: purchased Promega Corporation, USA
T6 sequence (P00533 25-1210 T790M/L858R): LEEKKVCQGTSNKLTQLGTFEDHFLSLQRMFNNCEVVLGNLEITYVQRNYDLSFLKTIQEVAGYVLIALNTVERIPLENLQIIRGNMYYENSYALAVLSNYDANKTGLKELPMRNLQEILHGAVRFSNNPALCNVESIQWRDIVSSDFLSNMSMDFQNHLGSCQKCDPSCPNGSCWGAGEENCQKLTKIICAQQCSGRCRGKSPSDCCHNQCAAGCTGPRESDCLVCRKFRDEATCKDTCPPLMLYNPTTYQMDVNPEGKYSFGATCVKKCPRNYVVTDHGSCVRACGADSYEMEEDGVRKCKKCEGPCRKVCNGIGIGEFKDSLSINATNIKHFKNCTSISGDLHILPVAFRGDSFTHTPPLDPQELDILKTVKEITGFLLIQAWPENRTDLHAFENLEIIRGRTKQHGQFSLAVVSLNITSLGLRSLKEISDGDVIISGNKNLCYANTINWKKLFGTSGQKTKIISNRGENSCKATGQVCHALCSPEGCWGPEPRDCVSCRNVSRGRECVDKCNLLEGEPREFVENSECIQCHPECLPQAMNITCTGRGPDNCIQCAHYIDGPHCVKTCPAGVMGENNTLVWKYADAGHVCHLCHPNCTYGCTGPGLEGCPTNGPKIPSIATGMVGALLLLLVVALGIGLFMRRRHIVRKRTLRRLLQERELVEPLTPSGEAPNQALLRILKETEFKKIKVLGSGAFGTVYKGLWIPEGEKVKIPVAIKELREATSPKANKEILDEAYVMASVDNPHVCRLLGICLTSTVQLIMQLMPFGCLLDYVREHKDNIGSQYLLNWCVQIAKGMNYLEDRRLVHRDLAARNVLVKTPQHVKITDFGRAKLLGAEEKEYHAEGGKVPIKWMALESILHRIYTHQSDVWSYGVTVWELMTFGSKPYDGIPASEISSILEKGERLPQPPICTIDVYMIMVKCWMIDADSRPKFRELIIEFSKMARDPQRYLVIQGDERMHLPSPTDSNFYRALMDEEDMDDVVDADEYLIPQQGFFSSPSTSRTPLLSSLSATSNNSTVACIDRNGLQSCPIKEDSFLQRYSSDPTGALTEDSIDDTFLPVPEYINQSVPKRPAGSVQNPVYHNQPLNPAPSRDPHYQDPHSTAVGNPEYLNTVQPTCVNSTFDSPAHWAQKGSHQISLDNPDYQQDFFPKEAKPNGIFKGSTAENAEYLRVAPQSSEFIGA
Kind of assay: Kinase inhibition assay (ADP-Glo, Promega). The class given is biochemical. The method, then:
as §2, §3, §1

Assay [4] concerns the target T3, EGFR extracellular ligand binding domain. Kind of assay: SPR EGF competition experiments. As to conditions: for kon: read-out: ka. From the text: The protocol fixed the pre-flank contact time, analyte contact time, and post-flank contact time at 60 s, 60 s, and 120 s, respectively.

Read-outs that look alike come from different tables or passages of the source.

Results on three compounds are retold here after paper PMC11094307, “Marine-derived EGFR inhibitors: novel compounds targeting breast cancer growth and drug resistance” (Frontiers in Pharmacology, 2024).

One may read the EC50 as the concentration that produces a half-maximal response. A word on the IC50: it is the concentration that gives 50% inhibition. For orientation: Kd means the concentration at which binding is half-saturated.

With `CC[C@@H](C)[C@H]1C=C[C@H]2[C@H](OC(=O)/C=C(\C)CC(=O)OC)[C@H](O)C[C@@H](C)[C@@H]2[C@@]1(C)C(=O)CCO` [Tandyukisin B], the concentration giving a half-maximal response (EC50) in the assay on MCF-7 cells (MCF7, MTT, 24 h) amounted to 9.2 ± 1.2 µM. The half-inhibitory concentration (IC50) at EGFR T790M (in vitro kinase assay, read-out: IC50 against EGFR T790M) turned out to be 0.0373 ± 0.0001 µM; at WT EGFR (read-out: IC50 against WT EGFR) it was 0.0147 ± 0.0011 µM. Further, the Kd in assay [1] was 30 µM; in assay [3] it was 7.02 µM. Moreover, the “binding to kinase domain of EGFR” value in [2] is recorded as “hardly bind”.

For `CC[C@@H](C)[C@H]1C=C[C@H]2[C@H](O)[C@H](OC(=O)/C=C(\C)CC(=O)O)C[C@@H](C)[C@@H]2[C@@]1(C)C(=O)CCO` [Trichoharzin], the EC50 with MCF-7 cells (MCF7, 24 h) was 4.8 ± 0.4 µM. For the same compound, the IC50 on EGFR L858R was 0.0028 ± 0.0006 µM; at EGFR L858R/T790M, 0.0855 ± 0.0277 µM; at EGFR T790M, 0.032 ± 0.0005 µM; at WT EGFR (IC50 against WT EGFR), 0.0119 ± 0.0001 µM. The Kd in assay [1] came out at 7.98 µM; in assay [4] (EGF 2.5 nM, Figure 4H, read-out: KD) it was 26.2 µM; in assay [4] (EGF 10 nM, Figure 4I, read-out: KD), 40.6 µM; in assay [4] (EGF 20 nM, Figure 4J, read-out: KD), 56.2 µM; in assay [4] (in the presence of EGF 2.5 nM, read-out: KD for EGFR extracellular ligand binding domain), 26.2 µM; in assay [4] (in the presence of EGF 10 nM, read-out: KD for EGFR extracellular ligand binding domain), 40.6 µM. For the same compound, the Kd in assay [4] (in the presence of EGF 20 nM, read-out: KD for EGFR extracellular ligand binding domain) is 56.2 µM; in [3], 6.34 µM. Moreover, the kon in [1] (Figure 4C-D, read-out: ka, EGFR ligand binding domain) came out at 1810 M⁻¹ s⁻¹; in assay [4] (EGF 2.5 nM, Figure 4H) it was 1030 M⁻¹ s⁻¹; in assay [4] (EGF 10 nM, Figure 4I) it was 552 M⁻¹ s⁻¹; in assay [4] (EGF 20 nM, Figure 4J) it was 374 M⁻¹ s⁻¹; in assay [3] (Figure 4A-B, read-out: ka, EGFR kinase domain) it was 8040 M⁻¹ s⁻¹. Further, the “folds weaker than binding alone” value in [4] (EGF 2.5 nM) was 3.3 fold; in assay [4] (EGF 10 nM), 5.1 fold; in [4] (EGF 20 nM) it was 7.0 fold. Moreover, the “inhibition of EGF-EGFR interaction” value in [4] (SPR, concentration-dependent, 125-500 μM) is on record as “significantly inhibiting”.

In the case of `CC[C@@H](C)[C@H]1C=C[C@H]2[C@H](OC(=O)C/C(C)=C\C(=O)O)[C@H](O)C[C@@H](C)[C@@H]2[C@@]1(C)C(=O)CCO` [Tandyukisin C], the EC50 with MCF-7 cells (MCF7, 24 h) came out at 8.7 ± 1 µM. Also, the IC50 at EGFR L858R worked out at 0.003 ± 0.0002 µM; at EGFR L858R/T790M, 0.156 ± 0.004 µM; at EGFR T790M it was 0.0297 ± 0.0001 µM; at WT EGFR (IC50 against WT EGFR), 0.0126 ± 0.0001 µM. For the same compound, the dissociation constant Kd came out at 55.1 µM in [1] and 6.56 µM in assay [3]. Moreover, the “binding to kinase domain of EGFR” value in assay [2] is “hardly bind”.
